Reference: ChEMBL document CHEMBL1201862, “PubChem BioAssay data set” (2004)
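1) Cells in 96-well plates. 2) Compound, 48 h, 5 concentrations. 3) Linear interpolation between surrounding doses. 4) Unreached endpoint = highest concentration. At the GI50, growth is halved.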 Active and inactive are the calls of the source. Rule as the data show it: active = GI50 up to about 1.1 µM and inactive = higher.

Key:
Assay in all cases: growth of human tumour cells (NCI), 48 h
[1] = tested on: SNB-19
[2] = tested on: K562
[3] = tested on: NCI-H522
[4] = tested on: TK-10
[5] = tested on: HOP-62
[6] = tested on: RPMI-8226
[7] = tested on: OVCAR-4
[8] = tested on: SK-MEL-28
[9] = tested on: U-251
[10] = tested on: SK-OV-3
[11] = tested on: SNB-75
[12] = tested on: A549
[13] = tested on: 786-0
[14] = tested on: SN12C
[15] = tested on: OVCAR-8
[16] = tested on: HCC 2998

Row | SMILES | GI50 [1] | GI50 [2] | GI50 [3] | GI50 [4] | GI50 [5] | GI50 [6] | GI50 [7] | GI50 [8] | GI50 [9] | GI50 [10] | GI50 [11] | GI50 [12] | GI50 [13] | GI50 [14] | GI50 [15] | GI50 [16]
1 | CCN1CCC(O)(/C=C/c2ccc(Cl)cc2)C(C(=O)/C=C/c2ccc(Cl)cc2)C1 (stereo not drawn) | 71.6 µM (inactive) | 28.1 µM (inactive) | 28.4 µM (inactive) | 31.1 µM (inactive) | > 100 µM (inactive) | 2.88 µM (inactive) | 29.6 µM (inactive) | 21.6 µM (inactive) | 19 µM (inactive) | 23 µM (inactive) | 33.9 µM (inactive) | 25.4 µM (inactive) | 20 µM (inactive) | > 10 µM (inactive) | 24.4 µM (inactive) | 18.4 µM (inactive)
2 | COc1cc2c(c(OC)c1OC)-c1ccc(OC)c(=O)cc1[C@@H](N(C)C=O)CC2 | 0.0215 µM (active) | 0.0128 µM (active) | 0.015 µM (active) | 1.45 µM (inactive) | < 0.0164 µM (active) | 0.0249 µM (active) | 1.37 µM (inactive) | < 0.01 µM (active) | < 0.0163 µM (active) |  | < 0.01 µM (active) | 0.0246 µM (active) | 0.0277 µM (active) | 0.0329 µM (active) | 0.0218 µM (active) | 0.0168 µM (active)
3 | COc1cc(OC)c2c(c1)C(=O)C(CC1(C)OCCCO1)=CC2=O | 18.2 µM (inactive) | 2.74 µM (inactive) | 3.43 µM (inactive) | 12.5 µM (inactive) | 19.1 µM (inactive) | 3.78 µM (inactive) | 7.62 µM (inactive) | 11.6 µM (inactive) | 17.4 µM (inactive) | 20 µM (inactive) | 11 µM (inactive) | 18.9 µM (inactive) | 9.77 µM (inactive) | 14 µM (inactive) | 9.27 µM (inactive) | 17.9 µM (inactive)
4 | Cl[Si]1(Cl)Oc2ccccc2O[Si](Cl)(Cl)Oc2ccccc2O1 | 17.4 µM (inactive) | 15.3 µM (inactive) | 1.53 µM (inactive) | 46.1 µM (inactive) | 26.2 µM (inactive) | 9.18 µM (inactive) | 11.8 µM (inactive) | 33.3 µM (inactive) | 28.1 µM (inactive) | 54.3 µM (inactive) | 19.9 µM (inactive) | 14.3 µM (inactive) | 8.45 µM (inactive) | 6.7 µM (inactive) | 30.5 µM (inactive) | 20.7 µM (inactive)
5 | CCOC(=O)C1(Br)C(c2ccccc2)NC(=O)NC1(C)Br (stereo not drawn) | 19 µM (inactive) | 39.8 µM (inactive) | 30.3 µM (inactive) | > 100 µM (inactive) | > 100 µM (inactive) | 62.2 µM (inactive) |  | > 100 µM (inactive) | 16.4 µM (inactive) | > 100 µM (inactive) | > 100 µM (inactive) | > 100 µM (inactive) | 38.3 µM (inactive) | 59.6 µM (inactive) | 89.3 µM (inactive) | > 100 µM (inactive)
6 | CSc1ccc(OCC2OC2O)cc1 (stereo not drawn) | > 92.5 µM (inactive) | 52.8 µM (inactive) | 23.8 µM (inactive) | > 50 µM (inactive) | > 100 µM (inactive) | 30.8 µM (inactive) | 30.8 µM (inactive) |  | 28.6 µM (inactive) | > 100 µM (inactive) | > 65.6 µM (inactive) | 42.3 µM (inactive) | 66.4 µM (inactive) | 62.2 µM (inactive) | 55.6 µM (inactive) | > 86.3 µM (inactive)
7 | C=CCC1[C@@H](C(C)(C)C(C(C)=O)C(=O)C(=O)OC)OC(C(C)(C)C)N1C(=O)OC (stereo partly drawn) | > 100 µM (inactive) | 40.6 µM (inactive) | > 100 µM (inactive) | > 100 µM (inactive) | > 100 µM (inactive) |  | > 100 µM (inactive) | > 100 µM (inactive) | > 100 µM (inactive) | > 100 µM (inactive) | 80.4 µM (inactive) | > 100 µM (inactive) | > 100 µM (inactive) | > 100 µM (inactive) | > 100 µM (inactive) | > 100 µM (inactive)
8 | CC(=O)OCC1=C(CCC#N)N2C(=O)C(NC(=O)Cc3cccs3)C2[S+]([O-])C1 (stereo not drawn) | > 100 µM (inactive) | > 100 µM (inactive) | 44.6 µM (inactive) | > 100 µM (inactive) | > 100 µM (inactive) | > 100 µM (inactive) | > 100 µM (inactive) | > 100 µM (inactive) | > 100 µM (inactive) | > 100 µM (inactive) | > 100 µM (inactive) | > 100 µM (inactive) | > 100 µM (inactive) | > 100 µM (inactive) | > 100 µM (inactive) | > 100 µM (inactive)
9 | CC(C)N(C(=O)C12C3C4C5(C#N)C3C1(C#N)C5C42C#N)C(C)C (stereo not drawn) | > 100 µM (inactive) | > 100 µM (inactive) | > 100 µM (inactive) | > 100 µM (inactive) | > 100 µM (inactive) | > 100 µM (inactive) | > 100 µM (inactive) | > 100 µM (inactive) | > 100 µM (inactive) | > 100 µM (inactive) | > 100 µM (inactive) | > 100 µM (inactive) | > 100 µM (inactive) | > 100 µM (inactive) | > 100 µM (inactive) | > 100 µM (inactive)
10 | c1ccc2c(c1)N=C(c1ccc3ccccc3c1)CC(c1cccc3ccccc13)S2 (stereo not drawn) | 46.8 µM (inactive) | 17.2 µM (inactive) | 24.3 µM (inactive) | 75.7 µM (inactive) | 85.5 µM (inactive) | 11.2 µM (inactive) | 33.6 µM (inactive) | 83.4 µM (inactive) | 60.1 µM (inactive) | > 100 µM (inactive) | 56.5 µM (inactive) | 48 µM (inactive) | 44.1 µM (inactive) | 59.3 µM (inactive) | 37.9 µM (inactive) | 15.1 µM (inactive)
11 | CCC12C=CCN3CC[C@]4(C(=C(C(=O)OC)[C@@H]1Nc1ncnc5c1ncn5C1OC(COC(C)=O)C(OC(C)=O)C1OC(C)=O)Nc1ccccc14)C32 (stereo partly drawn) | 5.62 µM (inactive) | 3.18 µM (inactive) | 1.7 µM (inactive) | 2.87 µM (inactive) | 2.84 µM (inactive) | 3.27 µM (inactive) | 2.42 µM (inactive) | 3.52 µM (inactive) | 2.19 µM (inactive) | 2.36 µM (inactive) | 2.43 µM (inactive) | 3.53 µM (inactive) | 1.94 µM (inactive) | 2.01 µM (inactive) | 2.18 µM (inactive) | 1.82 µM (inactive)
12 | CCOc1cccc2nc3cccc(C(=O)NCCN(C)C)c3nc12 | 1.89 µM (inactive) | 0.47 µM (active) | 2.3 µM (inactive) | 1.27 µM (inactive) | 0.469 µM (active) | 0.948 µM (active) | 1.19 µM (inactive) | 1.93 µM (inactive) | 1.34 µM (inactive) | 7.43 µM (inactive) | 1.45 µM (inactive) | 0.942 µM (active) | 2.51 µM (inactive) | 0.719 µM (active) | 0.891 µM (active) | 0.946 µM (active)
13 | C=CCCC12CCCC(=O)C1Sc1ccc3ccccc3c12 (stereo not drawn) | 24.4 µM (inactive) | 16.8 µM (inactive) | 15 µM (inactive) | 20.9 µM (inactive) | 19.8 µM (inactive) | 12.9 µM (inactive) | 28.6 µM (inactive) | 20.7 µM (inactive) | 16.6 µM (inactive) | 21.1 µM (inactive) | 22.8 µM (inactive) | 10.2 µM (inactive) | 17.9 µM (inactive) | 14.6 µM (inactive) | 32.1 µM (inactive) | 14.1 µM (inactive)
14 | CN(C)c1nc(N(C)c2ccccc2)[s+]s1 | > 100 µM (inactive) | 35.1 µM (inactive) | > 100 µM (inactive) | > 100 µM (inactive) | > 100 µM (inactive) |  | > 100 µM (inactive) | 64.3 µM (inactive) | 31.6 µM (inactive) | > 100 µM (inactive) | 83.2 µM (inactive) | 53.3 µM (inactive) | 51.5 µM (inactive) | 44.8 µM (inactive) | 66.7 µM (inactive) | > 100 µM (inactive)
15 | COC(=O)/C([Se]c1c(C)cc(C)cc1C)=C(/[Se]c1c(C)cc(C)cc1C)C(=O)OC | > 100 µM (inactive) | > 100 µM (inactive) | > 100 µM (inactive) | > 100 µM (inactive) | > 100 µM (inactive) | 76 µM (inactive) | > 100 µM (inactive) |  | > 100 µM (inactive) | > 100 µM (inactive) | > 100 µM (inactive) | > 100 µM (inactive) | > 100 µM (inactive) | > 100 µM (inactive) | > 100 µM (inactive) | > 100 µM (inactive)
16 | Cc1ccc([N+](=O)[O-])cc1NC(=O)C(=O)Cc1cc(=O)oc2cc(O)ccc12 | > 100 µM (inactive) | 46.3 µM (inactive) | > 100 µM (inactive) | > 100 µM (inactive) | > 100 µM (inactive) | 32.1 µM (inactive) | > 100 µM (inactive) | 33.5 µM (inactive) | > 100 µM (inactive) | > 100 µM (inactive) | > 100 µM (inactive) | > 100 µM (inactive) | > 100 µM (inactive) | > 100 µM (inactive) | > 100 µM (inactive) | > 100 µM (inactive)
17 | C/C=C(\C)c1cc(O)c(C)c2c1Oc1cc(O)c(Cl)c(C)c1C(=O)O2 | 17.3 µM (inactive) |  | 19.4 µM (inactive) | 16.2 µM (inactive) | 27.7 µM (inactive) |  | 16.7 µM (inactive) | 22.4 µM (inactive) | 23.4 µM (inactive) |  | 19.6 µM (inactive) | 31.6 µM (inactive) | 25.6 µM (inactive) | 16.6 µM (inactive) | 21.4 µM (inactive) | 13 µM (inactive)
